Assay results: PubChem BioAssay (NCI)
Several values for one entry are separate records, joined by “and”; a condition that tells them apart may be missing. Equal entries are not always repeated.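 Following 48 hours of exposure in 96-well plates, responses at five concentrations were used to interpolate endpoints linearly. GI50: concentration for 50% inhibition of growth. Definition used: TGI = concentration required for complete inhibition of growth.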

Columns and labels:
Assay in all cases: NCI anticancer screen, dose series, 48 h
[1] = tested on: DMS 273 small cell lung
[2] = tested on: SNB-78 CNS
[3] = tested on: DLD-1 colon
[4] = tested on: XF 498 CNS
[5] = tested on: KM20L2 colon
[6] = tested on: M19-MEL melanoma
[7] = tested on: PC-3 prostate
[8] = tested on: T-47D breast
[9] = tested on: MDA-N

Compound | GI50 [7] | TGI [7] | GI50 [8] [µM] | TGI [8] [µM] | also measured
CCN(CC)CCNC(=O)c1nn(C)c(=S)[nH]c1=S | – | – | – | – | TGI [1]: > 100 µM; TGI [2]: > 100 µM; TGI [3]: > 100 µM; TGI [4]: > 100 µM; TGI [5]: > 100 µM; TGI [6]: > 100 µM
CC[O-].CC[O-].O=C1C(c2ccccc2)=C([O-])c2ccccc21.O=C1C(c2ccccc2)=C([O-])c2ccccc21.[Ti+4] | – | – | – | – | GI50 [1]: > 100 µM; TGI [1]: > 100 µM; GI50 [2]: > 100 µM; TGI [2]: > 100 µM; GI50 [3]: > 100 µM; TGI [3]: > 100 µM; GI50 [5]: > 100 µM; TGI [5]: > 100 µM; GI50 [6]: > 100 µM; TGI [6]: > 100 µM
COc1cc2c(Oc3ccc4[nH]c(C)cc4c3F)ccnc2cc1OCC1(N)CC1 | 1.36 µM | 13.4 µM | 3.64 | 28.5 | –
Cc1cc2cc3c(C)cc(=O)oc3c(C)c2o1 | – | > 100 µM | – | > 100 | TGI [9]: > 100 µM
CC1(C)CC(n2cnc(-c3ccc(F)cc3)c2-c2ccnc(N)n2)CC(C)(C)N1 | > 25 µM | > 25 µM | 24.3 | > 25 | –
c1ccc2c(c1)-c1ccccc1C2N1CC2CCC(CC2)C1 | – | 72.1 µM | – | 43.3 | TGI [9]: > 100 µM
O=c1[nH]ccc2nc(N3CCC(O)CC3)nc(Nc3cccc(C(F)(F)F)c3)c12 | 2.29 µM | 13 µM | 3.11 | 26.1 | –
O=C(Nc1ccc(F)cc1)C(=O)C(C1OC(=O)c2ccccc21)[N+](=O)[O-] (stereo not given) | – | – | – | – | TGI [2]: > 100 µM; TGI [3]: > 100 µM; TGI [4]: > 100 µM; TGI [5]: > 100 µM; TGI [6]: > 100 µM
O=C([O][Hg][CH2]C1COCC([CH2][Hg][O]C(=O)c2ccccc2)O1)c1ccccc1 (stereo not given) | 15.9 µM | 32.4 µM | – | – | –
COc1cccc(-c2nc3sccn3c2-c2ccnc(NCCNS(=O)(=O)c3ccccc3)c2)c1 | 1.68 µM | > 100 µM | 0.776 | 4.96 | –
Nc1cc(-c2cccc(OC(F)(F)F)c2)nc2ccc(N3CCCC3)cc12 | 0.0455 µM and 0.0429 µM and 0.0372 µM | 26.9 µM and > 100 µM | 18.8 | 92.4 | –
CCCC(C)C[C@@H](C)CC(C)/C=C(\C)c1oc(=O)c(C)c(O)c1C (stereo not given in full) (tested in a mixture with another compound) | – | – | – | – | TGI [1]: 32.4 µM; TGI [2]: 45.9 µM; TGI [3]: 27.8 µM; TGI [5]: 25.7 µM
C=CCN1C=CC(=O)[C@H](O[Si](C)(C)C(C)(C)C)[C@@H]1/C=C/c1ccccc1 | – | – | 4.04 | 17 | –
CCN=c1cc2sc3cc(NCC)c(C)cc3nc-2cc1C | 0.133 µM | 4.72 µM | 0.58 | 10.5 | –
CN1CCCCCC(=N\O)/C(=N/O)CCCCC1 | – | > 100 µM | – | – | TGI [9]: > 100 µM
C=CCN(CC=C)C(=O)c1cc(C)nc2c1c(=O)n(-c1ccccc1)c(=O)n2CC(O)CN1CCN(c2ncccn2)CC1 (stereo not given) | – | – | > 100 | > 100 | –
O=[N+]([O-])c1ccc(N=Nc2c(O)ccc3ccccc23)cc1 | – | > 100 µM | – | > 100 | TGI [9]: > 100 µM
Cc1cc(-c2nnc(N)nc2-c2ccc(F)cc2)cc(Cl)n1 | 76.9 µM | > 100 µM | 28.3 | > 100 | –
